Reference: ChEMBL document CHEMBL1268821, “Inhibitors of the tyrosine kinase EphB4. Part 3: identification of non-benzodioxole-based kinase inhibitors” (Bioorg Med Chem Lett, 2010)

What was measured:
[1] = AUC (0 to 24 hrs) in nude mouse at 100 mg/kg, po; assay type: ADME, organism-based; design: time < 24 hr, dose 100 mg/kg, route oral; conditions: plasma
[2] = Plasma concentration in nude mouse at 100 mg/kg, po measured at 1 hr; assay type: ADME, organism-based; design: dose 100 mg/kg, route oral
[3] = Plasma concentration in nude mouse at 100 mg/kg, po measured at 4 hrs; assay type: ADME, organism-based; design: dose 100 mg/kg, route oral
[4] = Plasma concentration in nude mouse at 100 mg/kg, po measured at 24 hrs; assay type: ADME, organism-based; design: dose 100 mg/kg, route oral
Rattus norvegicus = experiment: Hepatic blood flow in Han Wistar rat at […], iv and 5 mg/kg, po; assay type: ADME, organism-based, Liver; conditions: in vivo
[5] = Volume of distribution at steady state in Han Wistar rat at […], iv and 5 mg/kg, po; assay type: ADME, organism-based; conditions: in vivo, read-out: Vdss
[6] = Bioavailability in Han Wistar rat at […], iv and 5 mg/kg, po; assay type: ADME, organism-based; conditions: in vivo

## CN(c1ccnc(Nc2cc(N3CCOCC3)cc(N3CCOCC3)c2)n1)c1cccc2[nH]ncc12
[1]
  AUC(0-t) at 24 h: 48.7 µM·h
[2]
  concentration at 1 h: 11000 nM
[3]
  concentration at 4 h: 1900 nM
[4]
  concentration at 24 h: 1800 nM
Rattus norvegicus
  QH: 19%
[5]
  Vd: 0.8 L/kg
[6]
  bioavailability: 65%
